Experimental data as given in ChEMBL document CHEMBL1142357, “Synthesis and biological evaluation of 1-methyl-2-(3',4',5'-trimethoxybenzoyl)-3-aminoindoles as a new class of antimitotic agents and tubulin inhibitors” (J Med Chem, 2008).

Legend:
[1] = system: L1210; assay: Antiproliferative activity against mouse L1210 cells; assay type: functional, cell-based
[2] = system: FM3A; assay: Antiproliferative activity against mouse FM3A cells; assay type: functional, cell-based
[3] = Inhibition of bovine tubulin polymerization after 20 mins; parameters: species or system Bos taurus
[4] = Antiproliferative activity against human Molt4/C8 cells; assay type: functional, cell-based; details: MOLT-4
[5] = system: CCRF-CEM; assay: Antiproliferative activity against human CEM cells; assay type: functional, cell-based
[6] = system: K562; assay: Cell cycle arrest in human K562 cells by accumulation at sub G0-G1 phase at 3 uM after 24 hrs by flow cytometry; assay type: functional
[7] = system: K562; assay: Cell cycle arrest in human K562 cells by accumulation at S phase at 3 uM after 24 hrs by flow cytometry; assay type: functional
[8] = system: K562; assay: Induction of apoptosis in human K562 cells after 48 hrs by fluorescence microscopy; assay type: functional, cell-based; details: K562, 48 h
[9] = system: K562; assay: Cell cycle arrest in human K562 cells by accumulation at G2/M phase at 3 uM after 24 hrs by flow cytometry; assay type: functional
[10] = system: K562; assay: Cell cycle arrest in human K562 cells by accumulation at G0/G1 phase at 3 uM after 24 hrs by flow cytometry; assay type: functional
[11] = system: K562; assay: Induction of apoptosis in human K562 cells at 60 nM after 48 hrs by fluorescence microscopy; assay type: functional
[12] = system: K562; assay: Cell cycle arrest in human K562 cells by accumulation at S phase at 30 nM after 24 hrs by flow cytometry; assay type: functional
[13] = system: K562; assay: Cell cycle arrest in human K562 cells by accumulation at G2/M phase at 30 nM after 24 hrs by flow cytometry; assay type: functional
[14] = organism: Bos taurus; assay: Displacement of [3H]colchicine from bovine tubulin at 5 uM
[15] = system: K562; assay: Cell cycle arrest in human K562 cells by accumulation at A phase at 30 nM after 24 hrs by flow cytometry; assay type: functional
[16] = system: K562; assay: Cell cycle arrest in human K562 cells by accumulation at G0/G1 phase at 30 nM after 24 hrs by flow cytometry; assay type: functional
[17] = system: K562; assay: Cell cycle arrest in human K562 cells by accumulation at G0/G1 phase at 200 nM after 24 hrs by flow cytometry; assay type: functional
[18] = system: K562; assay: Cell cycle arrest in human K562 cells by accumulation at S phase at 200 nM after 24 hrs by flow cytometry; assay type: functional
[19] = system: K562; assay: Cell cycle arrest in human K562 cells by accumulation at A phase at 200 nM after 24 hrs by flow cytometry; assay type: functional
[20] = system: K562; assay: Cell cycle arrest in human K562 cells by accumulation at G2/M phase at 200 nM after 24 hrs by flow cytometry; assay type: functional

| IC50 [1] [µM] | IC50 [3] [µM] | IC50 [5] [µM] | Structure (SMILES) | IC50 [2] [µM] | IC50 [4] [nM] | also measured |
| --- | --- | --- | --- | --- | --- | --- |
| 1.9 | 6.4 | 0.4 | COc1cc(C(=O)c2c(N)c3ccc(C)cc3n2C)cc(OC)c1OC | 1.5 | 110 | – |
| 4.2 | 15 | 3.9 | COc1ccc2c(c1)c(N)c(C(=O)c1cc(OC)c(OC)c(OC)c1)n2C | 5.2 | 2100 | – |
| > 10 | – | > 10 | CCn1c(C(=O)c2cc(OC)c(OC)c(OC)c2)c(N)c2ccc(OC)cc21 | > 10 | > 10000 | – |
| 1.8 | 8.4 | 1.2 | COc1cc(C(=O)c2c(N)c3cccc(C)c3n2C)cc(OC)c1OC | 1.4 | 270 | – |
| 0.97 | > 40 | 0.32 | COc1ccc2c(N)c(C(=O)c3cc(OC)c(OC)c(OC)c3)[nH]c2c1 | 1.6 | 630 | Activity [6]: 25%; Activity [7]: 35%; AC50 [8]: 3000 nM; Activity [9]: 50%; Activity [10]: 15% |
| 1.1 | 7.1 | 1 | COc1cc(C(=O)c2c(N)c3ccc(Cl)cc3n2C)cc(OC)c1OC | 0.97 | 480 | – |
| > 10 | – | > 10 | COc1cc(C(=O)c2[nH]c3ccccc3c2N)cc(OC)c1OC | > 10 | > 10000 | – |
| > 10 | – | > 10 | CCn1c(C(=O)c2cc(OC)c(OC)c(OC)c2)c(N)c2cccc(OC)c21 | > 10 | 9100 | – |
| > 10 | – | > 10 | COc1cc(C(=O)c2[nH]c3c(C)cccc3c2N)cc(OC)c1OC | > 10 | > 10000 | – |
| 0.015 | 1.4 | 0.0088 | COc1cc(C(=O)c2c(N)c3cccc(OC)c3n2C)cc(OC)c1OC | 0.015 | 3.8 | Activity [11]: 100%; Activity [12]: 28%; Activity [13]: 45%; inhibition [14]: 76%; AC50 [8]: 30 nM; Activity [15]: 24%; Activity [16]: 27% |
| > 10 | – | 0.63 | COc1cc(C(=O)c2[nH]c3c(OC)cccc3c2N)cc(OC)c1OC | > 10 | 640 | – |
| 9.7 | – | 8.6 | COc1ccc2[nH]c(C(=O)c3cc(OC)c(OC)c(OC)c3)c(N)c2c1 | 9.9 | 6900 | – |
| > 10 | – | 9.5 | COc1cc2[nH]c(C(=O)c3cc(OC)c(OC)c(OC)c3)c(N)c2cc1OC | > 10 | 8600 | – |
| 8.1 | – | 6.8 | COc1cc(C(=O)c2c(N)c3ccccc3n2C)cc(OC)c1OC | > 10 | 2100 | – |
| 0.0035 | 2.9 | 0.0036 | COc1ccc2c(C(=O)c3cc(OC)c(OC)c(OC)c3)c[nH]c2c1 | 0.0037 | 3.4 | inhibition [14]: 84% |
| > 10 | – | > 10 | COc1cc(C(=O)c2[nH]c3cccc(C)c3c2N)cc(OC)c1OC | > 10 | > 10000 | – |
| > 10 | – | > 10 | COc1cc(C(=O)c2[nH]c3ccc(Cl)cc3c2N)cc(OC)c1OC | > 10 | > 10000 | – |
| > 10 | – | > 10 | COc1cc(C(=O)c2[nH]c3cc(Cl)ccc3c2N)cc(OC)c1OC | > 10 | 9200 | – |
| 0.069 | 4.6 | 0.071 | COc1ccc2c(N)c(C(=O)c3cc(OC)c(OC)c(OC)c3)n(C)c2c1 | 0.097 | 57 | Activity [17]: 15%; Activity [18]: 33%; Activity [19]: 23%; Activity [20]: 52%; inhibition [14]: 38%; AC50 [8]: 150 nM |
| 3.5 | – | 2.6 | COc1cc(C(=O)c2[nH]c3cc(C)ccc3c2N)cc(OC)c1OC | > 10 | 1400 | – |
| > 10 | – | > 10 | COc1cc(C(=O)c2[nH]c3ccc(C)cc3c2N)cc(OC)c1OC | > 10 | > 10000 | – |
| – | – | – | COc1ccc(/C=C\c2cc(OC)c(OC)c(OC)c2)cc1O [COMBRETASTATIN A4] | – | 1.6 | – |
| 1.9 | 10 | 1.7 | COc1cc(C(=O)c2c(N)c3cc(C)ccc3n2C)cc(OC)c1OC | 1.6 | 1700 | – |
| > 10 | – | > 10 | CCn1c(C(=O)c2cc(OC)c(OC)c(OC)c2)c(N)c2ccccc21 | > 10 | > 10000 | – |
| 5.4 | 18 | 5 | COc1cc2c(N)c(C(=O)c3cc(OC)c(OC)c(OC)c3)n(C)c2cc1OC | 5 | 5000 | – |
| > 10 | – | > 10 | COc1cc(C(=O)c2c(N)c3c(OC)cccc3n2C)cc(OC)c1OC | > 10 | > 10000 | – |
| > 10 | – | > 10 | COc1cc(C(=O)c2c(N)c3c(C)cccc3n2C)cc(OC)c1OC | > 10 | > 10000 | – |
| > 10 | – | > 10 | COc1cc(C(=O)c2[nH]c3cccc(OC)c3c2N)cc(OC)c1OC | > 10 | > 10000 | – |

| Structure (SMILES) | IC50 [1] [µM] | IC50 [3] [µM] | IC50 [5] [µM] | IC50 [2] [µM] | IC50 [4] [nM] | also measured |
| --- | --- | --- | --- | --- | --- | --- |
| COc1cc(C(=O)c2sc3c(OC)cccc3c2N)cc(OC)c1OC | 0.033 | 2.1 | 0.0089 | 0.027 | 8.5 | inhibition [14]: 39% |
